{
  "source": "paper PMC4914440",
  "about": "(Pharmacological research, 2016)",
  "key": {"M3 muscarinic receptor": {"target": "M3 muscarinic receptor (Homo sapiens, UniProt P20309)", "sequence (P20309 whole entry)": "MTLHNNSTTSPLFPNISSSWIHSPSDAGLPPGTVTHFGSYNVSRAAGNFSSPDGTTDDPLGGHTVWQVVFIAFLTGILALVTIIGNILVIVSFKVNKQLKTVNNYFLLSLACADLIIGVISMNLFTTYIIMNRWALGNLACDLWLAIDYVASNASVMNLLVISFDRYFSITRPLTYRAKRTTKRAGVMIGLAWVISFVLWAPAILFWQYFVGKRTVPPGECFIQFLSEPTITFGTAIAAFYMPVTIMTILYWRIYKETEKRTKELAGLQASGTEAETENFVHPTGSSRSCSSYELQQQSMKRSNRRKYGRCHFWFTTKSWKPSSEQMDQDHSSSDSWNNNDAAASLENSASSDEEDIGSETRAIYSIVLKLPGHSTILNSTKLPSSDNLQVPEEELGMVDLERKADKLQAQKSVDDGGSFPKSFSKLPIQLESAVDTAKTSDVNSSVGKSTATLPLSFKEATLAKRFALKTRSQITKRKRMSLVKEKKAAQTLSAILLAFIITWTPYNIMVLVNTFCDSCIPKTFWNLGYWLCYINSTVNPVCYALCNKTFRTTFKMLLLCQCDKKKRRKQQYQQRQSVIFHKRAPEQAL", "assay": "Intracellular calcium assay, untransfected HEK293 cells with endogenous receptor", "type": "cell-based"}, "DAT": {"tested_on": "DAT", "conditions": "cited from earlier work"}, "5-HT2C receptor [1]": {"target": "T1, 5-HT2C receptor (Homo sapiens, UniProt P28335)", "T1 sequence (P28335 33-458)": "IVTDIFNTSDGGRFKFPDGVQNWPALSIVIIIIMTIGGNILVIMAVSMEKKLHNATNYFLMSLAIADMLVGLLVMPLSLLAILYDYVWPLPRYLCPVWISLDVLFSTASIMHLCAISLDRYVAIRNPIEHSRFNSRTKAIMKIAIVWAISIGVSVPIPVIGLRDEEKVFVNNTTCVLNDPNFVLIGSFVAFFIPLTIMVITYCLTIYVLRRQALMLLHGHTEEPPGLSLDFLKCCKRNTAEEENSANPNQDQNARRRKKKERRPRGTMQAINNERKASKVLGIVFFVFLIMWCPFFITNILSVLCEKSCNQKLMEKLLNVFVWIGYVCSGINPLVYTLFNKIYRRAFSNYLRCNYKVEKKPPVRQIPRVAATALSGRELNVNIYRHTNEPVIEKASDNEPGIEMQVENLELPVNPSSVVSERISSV", "conditions": "serum free"}, "5-HT2A receptor [2]": {"target": "T2, 5-HT2A receptor (Homo sapiens, UniProt P28223)", "T2 sequence (P28223 whole entry)": "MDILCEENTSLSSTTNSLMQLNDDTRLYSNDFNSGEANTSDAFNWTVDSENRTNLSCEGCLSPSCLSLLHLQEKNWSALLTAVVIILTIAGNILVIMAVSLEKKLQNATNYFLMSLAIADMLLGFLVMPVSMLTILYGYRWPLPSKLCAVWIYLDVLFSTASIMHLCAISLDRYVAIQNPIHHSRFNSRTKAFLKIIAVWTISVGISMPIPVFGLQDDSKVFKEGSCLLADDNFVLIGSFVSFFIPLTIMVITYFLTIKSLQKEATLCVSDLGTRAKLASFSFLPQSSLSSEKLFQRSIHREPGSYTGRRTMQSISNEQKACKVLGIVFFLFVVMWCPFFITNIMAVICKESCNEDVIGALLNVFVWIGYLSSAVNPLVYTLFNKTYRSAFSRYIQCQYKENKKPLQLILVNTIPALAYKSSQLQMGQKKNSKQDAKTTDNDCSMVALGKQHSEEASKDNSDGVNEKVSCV", "assay": "Prolonged", "type": "cell-based", "conditions": "for antagonism of 100 nM 5-HT calcium response: 10 μM efavirenz"}, "r5-HT6": {"target": "r5-HT6 (Rattus norvegicus, UniProt P31388)", "sequence (P31388 whole entry)": "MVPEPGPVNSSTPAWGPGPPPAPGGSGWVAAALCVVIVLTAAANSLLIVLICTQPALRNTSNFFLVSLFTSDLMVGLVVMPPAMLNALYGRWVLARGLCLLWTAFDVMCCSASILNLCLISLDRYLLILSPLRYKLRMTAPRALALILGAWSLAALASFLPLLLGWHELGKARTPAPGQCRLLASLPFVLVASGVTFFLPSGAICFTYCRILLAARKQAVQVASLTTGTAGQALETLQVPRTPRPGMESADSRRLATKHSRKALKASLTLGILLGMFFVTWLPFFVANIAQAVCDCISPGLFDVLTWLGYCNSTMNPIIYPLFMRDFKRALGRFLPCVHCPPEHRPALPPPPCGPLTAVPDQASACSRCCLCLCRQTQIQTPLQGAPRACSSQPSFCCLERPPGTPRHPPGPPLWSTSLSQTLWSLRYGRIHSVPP", "assay": "Radioligand displacement by a fixed drug concentration, [3H]LSD", "conditions": "10 μM efavirenz"}, "NMDA receptors": {"tested_on": "NMDA receptors", "conditions": "10 μM; cited from earlier work"}, "HIV-1": {"tested_on": "HIV-1", "conditions": "cited from earlier work"}, "h5-HT5A": {"target": "h5-HT5A (Homo sapiens, UniProt P47898)", "sequence (P47898 whole entry)": "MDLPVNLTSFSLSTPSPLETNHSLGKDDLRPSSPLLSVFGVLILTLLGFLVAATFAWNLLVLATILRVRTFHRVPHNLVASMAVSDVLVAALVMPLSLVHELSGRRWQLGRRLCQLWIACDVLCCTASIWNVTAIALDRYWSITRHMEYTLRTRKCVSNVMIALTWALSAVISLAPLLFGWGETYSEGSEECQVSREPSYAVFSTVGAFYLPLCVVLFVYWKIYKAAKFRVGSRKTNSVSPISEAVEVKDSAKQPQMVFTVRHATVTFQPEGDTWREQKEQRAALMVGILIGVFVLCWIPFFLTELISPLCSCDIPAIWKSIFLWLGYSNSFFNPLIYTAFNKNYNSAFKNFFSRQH", "assay": "Radioligand displacement by a fixed drug concentration, [3H]LSD", "conditions": "10 μM efavirenz"}, "h5-HT2A": {"target": "h5-HT2A (Homo sapiens, UniProt P28223)", "sequence (P28223 whole entry)": "as the sequence (P28223 whole entry) above", "conditions": "10 μM efavirenz; cited from earlier work"}, "5-HT3A receptors": {"target": "T3, 5-HT3A receptors (Mus musculus, UniProt P23979)", "T3 sequence (P23979 24-489)": "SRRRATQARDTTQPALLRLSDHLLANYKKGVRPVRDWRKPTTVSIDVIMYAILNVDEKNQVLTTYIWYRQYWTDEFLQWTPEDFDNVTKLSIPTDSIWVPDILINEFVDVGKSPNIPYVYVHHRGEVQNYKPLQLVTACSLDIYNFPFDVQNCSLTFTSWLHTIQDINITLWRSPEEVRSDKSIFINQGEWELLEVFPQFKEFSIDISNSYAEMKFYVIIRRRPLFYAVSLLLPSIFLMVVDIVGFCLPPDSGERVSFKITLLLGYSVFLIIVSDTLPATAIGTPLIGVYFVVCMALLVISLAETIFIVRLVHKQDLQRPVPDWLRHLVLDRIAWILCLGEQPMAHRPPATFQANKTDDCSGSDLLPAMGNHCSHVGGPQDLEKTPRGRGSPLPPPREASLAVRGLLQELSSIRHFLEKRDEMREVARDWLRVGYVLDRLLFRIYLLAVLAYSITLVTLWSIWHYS", "assay": "Whole cell electrophysiology, 5-HT-induced currents, HEK293 cells", "conditions": "for reversibility of inhibition: 2–3 min washout, data not shown"}, "[3]": {"conditions": "cited from earlier work"}, "h5-HT2C": {"target": "T4, h5-HT2C (Homo sapiens, UniProt P28335)", "T4 sequence (P28335 33-458)": "T1 sequence (P28335 33-458)", "conditions": "10 μM efavirenz; cited from earlier work"}, "muscarinic receptors": {"tested_on": "muscarinic receptors", "conditions": "10 μM; cited from earlier work"}, "5-HT6 receptor [4]": {"target": "T5, 5-HT6 receptor (Rattus norvegicus, UniProt P31388)", "T5 sequence (P31388 whole entry)": "as the sequence (P31388 whole entry) above", "assay": "Competition radioligand binding, concentration-response"}, "untransfected CHO cells": {"tested_on": "untransfected CHO cells", "assay": "Intracellular calcium assay, control cells", "type": "cell-based", "conditions": "data not shown"}, "m5-HT3 (5-HT3A receptor)": {"target": "m5-HT3 (5-HT3A receptor) (Mus musculus, UniProt P23979)", "assay": "Radioligand displacement by a fixed drug concentration, [3H]BRL-43694", "conditions": "10 μM efavirenz"}, "5-HT6 receptor [5]": {"target": "T5, 5-HT6 receptor", "assay": "cAMP-Glo assay of Gs signaling, HeLa cells", "type": "cell-based", "conditions": "30 μM"}, "gp5-HT4": {"target": "gp5-HT4 (Cavia porcellus, UniProt O70528)", "sequence (O70528 whole entry)": "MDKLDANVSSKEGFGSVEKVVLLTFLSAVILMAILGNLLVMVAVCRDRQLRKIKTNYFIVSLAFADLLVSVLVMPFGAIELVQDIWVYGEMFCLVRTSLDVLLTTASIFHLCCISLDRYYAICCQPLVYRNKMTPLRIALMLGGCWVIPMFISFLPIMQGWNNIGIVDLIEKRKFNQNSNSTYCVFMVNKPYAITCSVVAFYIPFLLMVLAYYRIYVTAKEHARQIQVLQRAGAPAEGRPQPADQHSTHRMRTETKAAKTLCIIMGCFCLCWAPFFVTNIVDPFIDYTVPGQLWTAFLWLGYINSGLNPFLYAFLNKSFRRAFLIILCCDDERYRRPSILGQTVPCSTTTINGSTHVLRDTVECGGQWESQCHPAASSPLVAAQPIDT", "conditions": "10 μM efavirenz"}, "[6]": {"conditions": "cited from earlier work", "remark": "listed apart in the source"}, "h5-HT2B": {"target": "h5-HT2B (Homo sapiens, UniProt P41595)", "sequence (P41595 whole entry)": "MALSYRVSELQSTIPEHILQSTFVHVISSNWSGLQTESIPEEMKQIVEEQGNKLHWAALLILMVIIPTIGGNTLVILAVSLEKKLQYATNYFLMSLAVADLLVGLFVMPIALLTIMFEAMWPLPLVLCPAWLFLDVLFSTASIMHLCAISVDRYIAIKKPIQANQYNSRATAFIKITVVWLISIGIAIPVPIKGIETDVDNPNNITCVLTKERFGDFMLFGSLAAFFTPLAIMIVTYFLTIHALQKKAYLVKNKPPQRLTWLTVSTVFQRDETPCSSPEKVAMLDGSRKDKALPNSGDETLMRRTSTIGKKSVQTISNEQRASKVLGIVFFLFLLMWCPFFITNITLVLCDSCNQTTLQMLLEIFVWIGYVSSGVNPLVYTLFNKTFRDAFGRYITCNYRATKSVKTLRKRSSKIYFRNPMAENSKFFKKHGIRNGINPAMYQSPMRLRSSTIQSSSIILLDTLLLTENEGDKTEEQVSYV", "assay": "Radioligand displacement by a fixed drug concentration, [3H]LSD", "conditions": "10 μM efavirenz"}, "5-HT2C receptor [7]": {"target": "T1, 5-HT2C receptor", "assay": "Competition radioligand binding, concentration-response"}, "untransfected HeLa cells": {"tested_on": "untransfected HeLa cells", "assay": "cAMP-Glo assay, control cells", "type": "cell-based, human", "conditions": "efavirenz 30 μM, clozapine 30 μM, 5-HT 1 μM"}, "GABAA receptor": {"tested_on": "GABAA receptor", "conditions": "cited from earlier work"}, "5-HT2A receptor [8]": {"target": "T2, 5-HT2A receptor", "assay": "Prolonged", "type": "cell-based", "conditions": "3 day exposure to 30 μM"}, "[9]": {"assay": "Estimated brain concentration, authors' calculation"}},
  "data": [
    {"compound": "O=C1Nc2ccc(Cl)cc2[C@@](C#CC2CC2)(C(F)(F)F)O1", "note": "[efavirenz, (4S)-6-chloro-4-(2-cyclopropylethynyl)-4-(trifluoromethyl)-2,4-dihydro-1H-3,1-benzoxazin-2-one]", "values": [
      {"measurement": "concentration partially suppressing ACh mediated activation", "setting": "M3 muscarinic receptor; EC50 concentration of acetylcholine", "result": "≥ 10", "unit": "µM"},
      {"measurement": "extent of block of ACh response", "setting": "M3 muscarinic receptor; highest concentration that could be tested", "result": "unable to produce a complete block"},
      {"measurement": "effect alone on intracellular Ca2+ levels", "setting": "M3 muscarinic receptor; untransfected HEK293 cells", "result": "had no effect"},
      {"measurement": "transporter function", "setting": "DAT", "result": "functioned as a DAT and SERT blocker"},
      {"measurement": "concentration completely suppressing the 5-HT agonist effect", "setting": "5-HT2C receptor [1]; 0.03 nM 5-HT (EC50)", "result": "≥ 60", "unit": "µM"},
      {"measurement": "concentration inhibiting the 5-HT agonist effect", "setting": "5-HT2C receptor [1]; 0.03 nM 5-HT (EC50)", "result": "≥ 10", "unit": "µM"},
      {"measurement": "concentration with no significant effect on 5-HT responses", "setting": "5-HT2C receptor [1]; 0.03 nM 5-HT (EC50)", "result": "up to 3 μM"},
      {"measurement": "agonist activity", "setting": "5-HT2C receptor [1]", "result": "did not have any agonist activity"},
      {"measurement": "antagonism of 100 nM 5-HT calcium response", "setting": "5-HT2A receptor [2]; cells pretreated 3 days with 30 μM 5-HT", "result": 49, "unit": "%"},
      {"measurement": "antagonism of 100 nM 5-HT calcium response", "setting": "5-HT2A receptor [2]; cells pretreated 3 days with 30 μM efavirenz", "result": 49, "unit": "%"},
      {"measurement": "antagonism of 100 nM 5-HT calcium response", "setting": "5-HT2A receptor [2]; cells pretreated 3 days with DMSO vehicle", "result": 48, "unit": "%"},
      {"measurement": "reduction of the 100 μM maximal 5-HT response", "setting": "5-HT2A receptor [2]; 3 day exposure to 30 μM, vs 3 day vehicle", "result": 81, "unit": "%"},
      {"measurement": "displacement of specifically bound radioligand", "setting": "r5-HT6", "result": "≥ 75", "unit": "%"},
      {"measurement": "interaction", "setting": "NMDA receptors", "result": "did not have significant interactions"},
      {"measurement": "plasma levels needed to keep HIV-1 suppressed", "setting": "HIV-1", "result": "1 to 4", "unit": "µg/mL"},
      {"measurement": "plasma levels resulting in NPAE", "setting": "HIV-1", "result": "greater than 2.74 μg/mL"},
      {"measurement": "plasma levels resulting in virologic failure", "setting": "HIV-1", "result": "< 1", "unit": "μg/mL"},
      {"measurement": "interaction (radioligand displacement)", "setting": "h5-HT5A", "result": "less pronounced or no detectable interaction"},
      {"measurement": "displacement of specifically bound radioligand", "setting": "h5-HT2A", "result": "≥ 75", "unit": "%"},
      {"measurement": "IC50", "setting": "5-HT3A receptors", "result": "4900 ± 700", "unit": "nM"},
      {"measurement": "Hill coefficient", "setting": "5-HT3A receptors; 0.6 μM 5-HT (EC30)", "result": "1.2 ± 0.19"},
      {"measurement": "effect alone", "setting": "5-HT3A receptors; 10 μM, n = 5, data not shown", "result": "had no effect"},
      {"measurement": "inhibition of steady-state currents", "setting": "5-HT3A receptors; 30 μM", "result": "complete inhibition"},
      {"measurement": "reversibility of inhibition", "setting": "5-HT3A receptors; 30 μM", "result": "partially recovered"},
      {"measurement": "reversibility of inhibition", "setting": "5-HT3A receptors; up to 10 μM", "result": "completely reversible"},
      {"measurement": "substitution in rats trained to discriminate LSD from saline", "setting": "[3]", "result": "partially substituted for LSD"},
      {"measurement": "displacement of specifically bound radioligand", "setting": "h5-HT2C", "result": "≥ 75", "unit": "%"},
      {"measurement": "interaction", "setting": "muscarinic receptors", "result": "did not have high affinity interactions"},
      {"measurement": "Ki", "setting": "5-HT6 receptor [4]", "result": "2200 ± 270", "unit": "nM"},
      {"measurement": "pseudo Hill slope", "setting": "5-HT6 receptor [4]; competition binding", "result": "−1.36 ± −0.14"},
      {"measurement": "Gq-mediated response", "setting": "untransfected CHO cells", "result": "No Gq-mediated response"},
      {"measurement": "displacement of [3H]-granisetron binding", "setting": "m5-HT3 (5-HT3A receptor)", "result": "did not significantly displace"},
      {"measurement": "effect on 5-HT agonist effect", "setting": "5-HT6 receptor [5]", "result": "completely overcame the agonist effect of 5-HT but also reduced activity to below basal levels"},
      {"measurement": "effect on basal cAMP", "setting": "5-HT6 receptor [5]", "result": "lowers the basal levels of cAMP"},
      {"measurement": "interaction (radioligand displacement)", "setting": "gp5-HT4", "result": "less pronounced or no detectable interaction"},
      {"measurement": "bound to plasma proteins", "setting": "[6]", "result": "approximately 99.8%"},
      {"measurement": "displacement of specifically bound radioligand", "setting": "h5-HT2B", "result": "greater than 50%"},
      {"measurement": "Ki", "setting": "5-HT2C receptor [7]", "result": "1700 ± 280", "unit": "nM"},
      {"measurement": "pseudo Hill slope", "setting": "5-HT2C receptor [7]; competition binding", "result": "−1.22 ± −0.18"},
      {"measurement": "change in cAMP levels", "setting": "untransfected HeLa cells", "result": "no significant changes in cAMP levels"},
      {"measurement": "effect on GABA-mediated chloride currents", "setting": "GABAA receptor", "result": "potentiated GABA-mediated chloride currents"},
      {"measurement": "decrease in receptor density (Bmax)", "setting": "5-HT2A receptor [8]", "result": 52, "unit": "%"},
      {"measurement": "estimated concentration in brain tissue", "setting": "[9]; 44 nM ÷ 0.002", "result": "~22", "unit": "µM"},
      {"measurement": "corresponding brain concentrations", "setting": "[9]; plasma >2.74 μg/mL, assuming rat brain accumulation 4.6", "result": "> 40", "unit": "µM"}
    ]}
  ]
}
